Test results published in US20210332036A1, “PYRIMIDINE AND PYRAZINE HDAC1,2 INHIBITORS” (REGENACY PHARMACEUTICALS, LLC, priority 2018, published 2021).

Experiments:
[1] = PK parameters, IV dosing (plasma and brain exposure); type: in vivo; set-up: AUC(0-t): concentration or dose not given beside the values; conditions: Mouse IV; for Kp: brain/plasma, read-out: Brain AUC/Plasma AUC
Description: [The procedure below names another organism; the source lists this organism under the same test.] Male SD rats were fasted overnight. Compounds of the invention were dissolved in dimethyl acetamide at 10 times the final concentration, then Solutol HS 15 (BASF) was added to a final concentration of 10%. Finally 80% saline was added and vortexed to achieve a clear solution. For the IV dosing three animals were injected via the foot dorsal vein with 1 mg/kg compound. For the PO dosing 5 mg/kg of compound was delivered by oral gavage. Blood was collected via the tail vein into K2EDTA tubes at 5 minutes, 15 minutes, 30 minutes, 1 hour, 2 hours, 4 hours, 8 hours and 24 hours after dosing. The blood was centrifuged at 2000 g for 5 minutes at 4° C. to obtain plasma. The plasma was extracted with acetonitrile and the level of compound was analyzed by LC/MS/MS. The level of compound in plasma was calculated from a standard curve in rat plasma. The IV clearance (L/h/kg) and area under the curve (h*ng/mL) were calculated using WinNonLin software. The dose adjusted area under the curve for the IV and oral dosing were used to calculate the oral bioavailability.
Pharmacokinetic properties were assessed in a rat cassette dosing experiment. The IV clearance (IV Clr.) is in units of L/hr/kg. The oral maximum plasma concentration (PO Cmax) is in units of ng/ml. The oral plasma half-life (PO T1/2) is in units of hours. The oral area under the curve (PO AUC) is in units of hours*ng/ml. The fraction absorbed by the oral route (F %) is a percentage of the oral area under the curve to the IV area under the curve, dose adjusted.

[2] = PK parameters, IP dosing (plasma and brain exposure); type: in vivo; set-up: AUC(0-t): concentration or dose not given beside the values; conditions: Mouse IP; for Kp: brain/plasma, read-out: Brain AUC/Plasma AUC
HDAC1 = biological target: T1, HDAC1 (Homo sapiens, UniProt Q13547); assay: HDAC enzyme assay, HDAC1; type: biochemical; conditions: 16 μM substrate, 10 min preincubation
T1 construct: purchased BPS Biosciences
T1 sequence (Q13547 whole entry): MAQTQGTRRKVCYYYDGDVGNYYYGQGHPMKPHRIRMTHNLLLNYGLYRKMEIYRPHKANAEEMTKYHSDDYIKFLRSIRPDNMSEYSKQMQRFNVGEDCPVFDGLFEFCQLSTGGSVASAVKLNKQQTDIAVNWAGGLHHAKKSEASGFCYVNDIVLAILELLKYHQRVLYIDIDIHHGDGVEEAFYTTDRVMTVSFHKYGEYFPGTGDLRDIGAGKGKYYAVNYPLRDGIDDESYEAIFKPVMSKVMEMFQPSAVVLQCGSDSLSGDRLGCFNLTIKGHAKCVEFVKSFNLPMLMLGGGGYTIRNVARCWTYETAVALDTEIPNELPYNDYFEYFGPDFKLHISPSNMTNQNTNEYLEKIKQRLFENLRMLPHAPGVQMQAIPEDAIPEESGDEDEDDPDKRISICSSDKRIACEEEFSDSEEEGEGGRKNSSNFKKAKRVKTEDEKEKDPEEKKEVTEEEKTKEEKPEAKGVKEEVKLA
Description: (§1) Compounds for testing were diluted in DMSO to 50 fold the final concentration and a ten-point three-fold dilution series was made. The compounds were diluted in assay buffer (50 mM HEPES, pH 7.4, 100 mM KCl, 0.001% Tween-20, 0.05% BSA, 20 μM TCEP) to 6-fold their final concentration. The HDAC enzymes (purchased from BPS Biosciences) were diluted to 1.5-fold their final concentration in assay buffer. The tripeptide substrate and trypsin at 0.05 μM final concentration were diluted in assay buffer at 6-fold their final concentration. The final enzyme concentrations used in these assays were 3.3 ng/ml (HDAC1), 0.2 ng/ml (HDAC2) and 0.08 ng/ml (HDAC3). The final substrate concentrations used were 16 μM (HDAC1), 10 μM (HDAC2) and 17 μM (HDAC3).
(§2) Five μl of compounds and 20 μl of enzyme were added to wells of a black, opaque 384 well plate in duplicate. Enzyme and compound were incubated together at room temperature for 10 minutes. Five μl of substrate was added to each well, the plate was shaken for 60 seconds and placed into a Victor 2 microtiter plate reader. The development of fluorescence was monitored for 60 min and the linear rate of the reaction was calculated. The IC50 was determined using Graph Pad Prism by a four parameter curve fit.

HDAC2 = biological target: T2, HDAC2 (Homo sapiens, UniProt Q92769); assay: HDAC enzyme assay, HDAC2; type: biochemical; conditions: 10 μM substrate, 10 min preincubation
T2 construct: purchased BPS Biosciences
T2 sequence (Q92769 whole entry): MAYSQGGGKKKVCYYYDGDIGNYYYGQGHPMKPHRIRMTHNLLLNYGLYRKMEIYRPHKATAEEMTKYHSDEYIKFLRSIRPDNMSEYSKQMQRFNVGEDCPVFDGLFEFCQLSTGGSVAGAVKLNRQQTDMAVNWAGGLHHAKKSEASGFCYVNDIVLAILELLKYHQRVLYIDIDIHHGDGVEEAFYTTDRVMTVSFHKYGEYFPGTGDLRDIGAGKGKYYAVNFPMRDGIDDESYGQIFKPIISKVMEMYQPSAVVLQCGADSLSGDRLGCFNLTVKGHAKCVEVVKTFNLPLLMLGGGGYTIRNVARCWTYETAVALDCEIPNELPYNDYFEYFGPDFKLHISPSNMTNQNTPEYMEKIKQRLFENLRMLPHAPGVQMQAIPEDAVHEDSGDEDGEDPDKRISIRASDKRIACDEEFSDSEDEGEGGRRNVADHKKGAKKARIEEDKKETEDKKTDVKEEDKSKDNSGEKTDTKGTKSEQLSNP
Description: as §1, §2

HDAC3 = biological target: T3, HDAC3 (Homo sapiens, UniProt O15379); assay: HDAC enzyme assay, HDAC3; type: biochemical; conditions: 17 μM substrate, 10 min preincubation
T3 construct: purchased BPS Biosciences
T3 sequence (O15379 whole entry): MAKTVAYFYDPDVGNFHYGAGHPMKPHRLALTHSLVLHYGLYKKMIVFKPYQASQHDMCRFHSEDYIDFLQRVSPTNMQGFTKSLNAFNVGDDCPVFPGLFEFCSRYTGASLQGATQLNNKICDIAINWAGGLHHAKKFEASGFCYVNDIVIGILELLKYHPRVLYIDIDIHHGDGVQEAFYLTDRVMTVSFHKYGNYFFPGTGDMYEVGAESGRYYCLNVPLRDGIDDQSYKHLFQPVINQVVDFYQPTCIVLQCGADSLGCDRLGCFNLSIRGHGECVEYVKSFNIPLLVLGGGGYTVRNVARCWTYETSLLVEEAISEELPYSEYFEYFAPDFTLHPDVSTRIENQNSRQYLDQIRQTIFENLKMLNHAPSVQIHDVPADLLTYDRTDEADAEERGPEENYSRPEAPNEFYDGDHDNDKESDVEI
T3 sequence (Q9Y618 395-489 partner limits assumed): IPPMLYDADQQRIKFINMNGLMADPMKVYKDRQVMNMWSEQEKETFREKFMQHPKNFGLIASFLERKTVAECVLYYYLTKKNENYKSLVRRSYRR
Description: as §1, §2

[3] = brain, read-out: AUC(last) Brain
[4] = plasma, read-out: AUC(last) Plasma

SMILES	AUC(0-t) [1, 3] [ng·h/mL]	AUC(0-t) [1, 4] [ng·h/mL]	Kp [1]	AUC(0-t) [2, 3] [ng·h/mL]	AUC(0-t) [2, 4] [ng·h/mL]	Kp [2]	IC50 (HDAC1) [nM]	IC50 (HDAC2) [nM]	IC50 (HDAC3) [nM]
Cc1ccc(-c2ccc(N)c(NC(=O)c3ccc(N4CCNCC4)cn3)c2)cc1 [Compound 001]	19000 to 20000	1400 to 1500	10 to 15	64700 to 64800	6700 to 6800	1 to 5	10 to 20	30 to 40	480 to 490
Nc1cc(F)c(-c2cccs2)cc1NC(=O)c1ccc(N2CCNCC2)cn1 [Compound 002]	9000 to 10000	400 to 500	20 to 25	23100 to 23200	2400 to 2500	5 to 10	1 to 10	10 to 20	200 to 210
Nc1ccc(-c2ccccc2)cc1NC(=O)c1ccc(N2CCNCC2)nn1 [Compound 003]	3000 to 4000	1000 to 1100	1 to 5	7900 to 8000	4700 to 4800	1 to 5	1 to 10	20 to 30	170 to 180
COCCOc1ccc(C(=O)Nc2cc(-c3cccs3)ccc2N)nc1 [Compound 004]	500 to 600	700 to 800	0.1 to 1.5	2100 to 2200	2300 to 2400	0.1 to 1.5	1 to 10	50 to 60	440 to 450
Nc1ccc(-c2cccs2)cc1NC(=O)c1ccc(OCCO)cn1 [Compound 005]	600 to 700	600 to 700	0.8 to 1.2	2000 to 2100	2300 to 2400	0.1 to 1.5	1 to 10	10 to 20	110 to 120
CN1CCN(c2cnc(C(=O)Nc3cc(-c4cccs4)ccc3N)nc2)CC1 [Compound 006]	700 to 800	200 to 300	2 to 4	700 to 800	800 to 900	0.1 to 1.5	1 to 10	40 to 50	80 to 90
Nc1ccc(-c2cccs2)cc1NC(=O)c1ncc(N2CCNCC2)cn1 [Compound 007]	30 to 40	400 to 500	0.01 to 0.1	900 to 1000	1800 to 1900	0.1 to 1.5	10 to 20	90 to 100	170 to 180
COCCOc1ccc(C(=O)Nc2cc(-c3cccs3)ccc2N)nn1 [Compound 008]	200 to 300	600 to 700	0.1 to 1.5	1300 to 1400	2900 to 3000	0.1 to 1.5	1 to 10	20 to 30	260 to 270
Nc1ccc(-c2ccccc2)cc1NC(=O)c1ncc(N2CCNCC2)cn1 [Compound 009]	300 to 400	300 to 400	0.8 to 1.5	200 to 300	1700 to 1800	0.1 to 1.5	10 to 20	70 to 80	200 to 210
CC(=O)N1CCN(c2ccc(C(=O)Nc3cc(-c4cccs4)ccc3N)nc2)CC1 [Compound 010]	200 to 300	500 to 600	0.1 to 1.5	200 to 300	2000 to 2100	0.1 to 1.5	1 to 10	10 to 20	120 to 130
CNS(=O)(=O)Oc1ccc(-c2ccc(N)c(NC(=O)c3ccc(N4CCN(C)CC4)cn3)c2)cc1 [Compound 011]	100 to 200	200 to 300	0.1 to 1.5	< 100	900 to 1000	0.1 to 1.5	1 to 10	10 to 20	> 2000
Nc1ccc(-c2cncs2)cc1NC(=O)c1ccc(N2CCNCC2)cn1 [Compound 012]	400 to 500	800 to 900	0.1 to 1.5	300 to 400	4300 to 4400	0.01 to 0.1	1 to 10	10 to 20	20 to 30
Nc1ccc(-c2cccs2)cc1NC(=O)c1ccc(OC[C@H](O)CO)cn1 [Compound 013]	200 to 300	1100 to 1200	0.1 to 0.3	300 to 400	5900 to 6000	0.01 to 0.1	1 to 10	20 to 30	140 to 150
Nc1ccc(-c2cccs2)cc1NC(=O)c1ccc(NC2CCN(C(=O)N3CCNCC3)CC2)cn1 [Compound 014]	100 to 200	1500 to 1600	0.05 to 0.1	200 to 300	7400 to 7500	0.01 to 0.1	1 to 10	10 to 20	50 to 60
Nc1ccc(-c2ccoc2)cc1NC(=O)c1ncc(N2CCNCC2)cn1 [Compound 015]	100 to 200	500 to 600	0.1 to 1.5	< 100	3200 to 3300	0.01 to 0.1	10 to 20	30 to 40	110 to 120
Nc1ccc(-c2ccccc2)cc1NC(=O)c1ncc(NCCOCc2cccnc2)cn1 [Compound 016]	< 100	300 to 400	0.01 to 0.1	< 100	900 to 1000	0.001 to 0.01	1 to 10	30 to 40	230 to 240
Nc1ccc(-c2cccs2)cc1NC(=O)c1cnc(N2CCNCC2)cn1 [Compound 017]	9000 to 10000	600 to 700		25000 to 25300	2700 to 2800		1 to 10	5 to 15	30 to 40
